# Laboratory results from US20130149383A1, “SUSTAINED RELEASE PARTICLE FORMULATIONS OF GUAIFENESIN” (priority 2011, published 2013).
# Columns and labels:
# [1] = cited from earlier work
# [2] = Equilibrium solubility determination in liquid vehicle (HPLC); type: physicochemical; settings: 40 °C, thermodynamic from solid; guaifenesin in liquid vehicle, 40° for two days, n=3
# Experimental: The objective of this example was to determine the […] using “HPLC protocol”. About 500 mg of guaifenesin was added into 20 ml of a liquid vehicle. The suspend solution were then shaken and then placed at 40° for two days. The supernatant was then filtered off using a syringe with a 0.45 μm filter, and diluted so that the absorbencies fell within the UV (25-fold dilution). The diluted clear solutions were equilibrium solubility samples, termed as “samples” in the “HPLC protocol’. The “HPLC protocol” was then followed (See below).
# A 20 mL of stock solution of the drug was prepared in DI water at a concentration of 1 mg/mL. The solution was left at room temperature for 5 min to get the drug dissolved. The stock solution was appropriately diluted to get several concentrations ranging from 0.1 mg/mL to 1 mg/mL (See FIG. 1). Samples were prepared by appropriately diluting the samples collected using “USP dissolution protocol” to ensure that the drug concentration level falls within the range of the standard curve (e.g., 2× dilution).
# HPLC was prepared by first washing the column with the wash buffer (acetonitrile:water 50:50 (v/v)) for 10 min. […]
smiles,measurement,setting,value
"COc1ccccc1OCC(O)CO (centres unmarked) [Guaifenesin, 3-(2-methoxyphenoxy)-1,2-propanediol]",water solubility,[1],highly water soluble
same,solubility thermodynamic at 2 days,[2],9590 ± 340 µg/mL
